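Dose response: 5 concentrations. Exposure: 48 h. Format: 96-well plates. Endpoint: linear interpolation; highest concentration if not reached. At the TGI there is no net growth.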
Key:
Test in all cases: growth of human tumour cells (NCI), 48 h
SNB-75 CNS = system: SNB-75 CNS
OVCAR-8 ovarian = system: OVCAR-8 ovarian
NCI-H226 lung = system: NCI-H226 lung
KM20L2 colon = system: KM20L2 colon
NCI-H522 lung = system: NCI-H522 lung
M14 melanoma = system: M14 melanoma
RXF 393 renal = system: RXF 393 renal
HT29 colon = system: HT29 colon
HOP-62 NSCLC = system: HOP-62 NSCLC
TK-10 renal = system: TK-10 renal
IGROV1 ovarian = system: IGROV1 ovarian
DMS 114 small cell lung = system: DMS 114 small cell lung
K-562 leukemia = system: K-562 leukemia
SF-268 CNS = system: SF-268 CNS
MOLT-4 leukemia = system: MOLT-4 leukemia
SK-MEL-5 melanoma = system: SK-MEL-5 melanoma
HCT-15 colon = system: HCT-15 colon
UO-31 renal = system: UO-31 renal
SK-MEL-28 melanoma = system: SK-MEL-28 melanoma
ACHN renal = system: ACHN renal
SF-539 CNS = system: SF-539 CNS
M19-MEL melanoma = system: M19-MEL melanoma
OVCAR-5 ovarian = system: OVCAR-5 ovarian
NCI-H460 lung = system: NCI-H460 lung
HOP-92 NSCLC = system: HOP-92 NSCLC
SF-295 CNS = system: SF-295 CNS
786-0 renal = system: 786-0 renal
SR leukemia = system: SR leukemia
SK-MEL-2 melanoma = system: SK-MEL-2 melanoma
NCI-H23 lung = system: NCI-H23 lung
SN12C renal = system: SN12C renal
CCRF-CEM leukemia = system: CCRF-CEM leukemia
UACC-62 melanoma = system: UACC-62 melanoma
HCC-2998 colon = system: HCC-2998 colon
DLD-1 colon = system: DLD-1 colon
SW-620 colon = system: SW-620 colon
RPMI-8226 leukemia = system: RPMI-8226 leukemia
UACC-257 melanoma = system: UACC-257 melanoma
XF 498 CNS = system: XF 498 CNS
SK-OV-3 ovarian = system: SK-OV-3 ovarian
U251 CNS = system: U251 CNS
DMS 273 small cell lung = system: DMS 273 small cell lung
A549 NSCLC = system: A549 NSCLC
LXFL 529 NSCLC = system: LXFL 529 NSCLC
HL-60(TB) leukemia = system: HL-60(TB) leukemia
HCT-116 colon = system: HCT-116 colon
KM12 colon = system: KM12 colon
EKVX NSCLC = system: EKVX NSCLC
HOP-18 NSCLC = system: HOP-18 NSCLC
LOX IMVI melanoma = system: LOX IMVI melanoma
OVCAR-3 ovarian = system: OVCAR-3 ovarian
COLO 205 colon = system: COLO 205 colon
SNB-19 CNS = system: SNB-19 CNS
MALME-3M melanoma = system: MALME-3M melanoma
OVCAR-4 ovarian = system: OVCAR-4 ovarian
SNB-78 CNS = system: SNB-78 CNS
A498 renal = system: A498 renal
CAKI-1 renal = system: CAKI-1 renal

CCOC(=O)COc1ccc(OCC(=O)OCC)c2c1C(=O)CCCC2=O
TGI (SNB-75 CNS): > 100 µM | TGI (OVCAR-8 ovarian): > 100 µM | TGI (NCI-H226 lung): > 100 µM | TGI (KM20L2 colon): > 100 µM | TGI (NCI-H522 lung): > 100 µM | TGI (M14 melanoma): > 100 µM | TGI (RXF 393 renal): > 100 µM | TGI (HT29 colon): > 100 µM | TGI (HOP-62 NSCLC): > 100 µM | TGI (TK-10 renal): > 100 µM | TGI (IGROV1 ovarian): > 100 µM | TGI (DMS 114 small cell lung): > 100 µM | TGI (K-562 leukemia): > 100 µM | TGI (SF-268 CNS): > 100 µM | TGI (MOLT-4 leukemia): > 100 µM | TGI (SK-MEL-5 melanoma): 0.846 µM | TGI (HCT-15 colon): > 100 µM | TGI (UO-31 renal): > 100 µM | TGI (SK-MEL-28 melanoma): > 100 µM | TGI (ACHN renal): > 100 µM | TGI (SF-539 CNS): > 100 µM | TGI (M19-MEL melanoma): > 100 µM | TGI (OVCAR-5 ovarian): > 100 µM | TGI (NCI-H460 lung): > 100 µM | TGI (HOP-92 NSCLC): > 100 µM | TGI (SF-295 CNS): > 100 µM | TGI (786-0 renal): > 100 µM | TGI (SR leukemia): > 100 µM | TGI (SK-MEL-2 melanoma): > 100 µM | TGI (NCI-H23 lung): > 100 µM | TGI (SN12C renal): > 100 µM | TGI (CCRF-CEM leukemia): > 100 µM | TGI (UACC-62 melanoma): > 100 µM | TGI (HCC-2998 colon): > 100 µM | TGI (DLD-1 colon): > 100 µM | TGI (SW-620 colon): > 100 µM | TGI (RPMI-8226 leukemia): > 100 µM | TGI (UACC-257 melanoma): > 100 µM | TGI (XF 498 CNS): > 100 µM | TGI (SK-OV-3 ovarian): > 100 µM | TGI (U251 CNS): > 100 µM | TGI (DMS 273 small cell lung): > 100 µM | TGI (A549 NSCLC): > 100 µM | TGI (LXFL 529 NSCLC): > 100 µM | TGI (HL-60(TB) leukemia): > 100 µM | TGI (HCT-116 colon): > 100 µM | TGI (KM12 colon): > 100 µM | TGI (EKVX NSCLC): > 100 µM | TGI (HOP-18 NSCLC): > 100 µM | TGI (LOX IMVI melanoma): > 100 µM | TGI (OVCAR-3 ovarian): > 100 µM | TGI (COLO 205 colon): > 100 µM | TGI (SNB-19 CNS): > 100 µM | TGI (MALME-3M melanoma): > 100 µM

OCc1nnn2c1CCC2
TGI (SNB-75 CNS): > 100 µM | TGI (OVCAR-8 ovarian): > 100 µM | TGI (KM20L2 colon): > 100 µM | TGI (NCI-H522 lung): > 100 µM | TGI (M14 melanoma): > 100 µM | TGI (RXF 393 renal): > 100 µM | TGI (HT29 colon): > 100 µM | TGI (HOP-62 NSCLC): > 100 µM | TGI (TK-10 renal): > 100 µM | TGI (IGROV1 ovarian): > 100 µM | TGI (K-562 leukemia): > 100 µM | TGI (MOLT-4 leukemia): > 100 µM | TGI (SK-MEL-5 melanoma): > 100 µM | TGI (HCT-15 colon): > 100 µM | TGI (OVCAR-4 ovarian): > 100 µM | TGI (UO-31 renal): > 100 µM | TGI (SK-MEL-28 melanoma): > 100 µM | TGI (ACHN renal): > 100 µM | TGI (SF-539 CNS): > 100 µM | TGI (M19-MEL melanoma): > 100 µM | TGI (OVCAR-5 ovarian): > 100 µM | TGI (NCI-H460 lung): > 100 µM | TGI (HOP-92 NSCLC): > 100 µM | TGI (SF-295 CNS): > 100 µM | TGI (SR leukemia): > 100 µM | TGI (SK-MEL-2 melanoma): > 100 µM | TGI (NCI-H23 lung): > 100 µM | TGI (SN12C renal): > 100 µM | TGI (CCRF-CEM leukemia): > 100 µM | TGI (UACC-62 melanoma): > 100 µM | TGI (SNB-78 CNS): > 100 µM | TGI (HCC-2998 colon): > 100 µM | TGI (DLD-1 colon): > 100 µM | TGI (SW-620 colon): > 100 µM | TGI (UACC-257 melanoma): > 100 µM | TGI (XF 498 CNS): > 100 µM | TGI (SK-OV-3 ovarian): > 100 µM | TGI (U251 CNS): > 100 µM | TGI (A549 NSCLC): > 100 µM | TGI (LXFL 529 NSCLC): > 100 µM | TGI (HL-60(TB) leukemia): > 100 µM | TGI (KM12 colon): > 100 µM | TGI (EKVX NSCLC): > 100 µM | TGI (HOP-18 NSCLC): > 100 µM | TGI (LOX IMVI melanoma): > 100 µM | TGI (OVCAR-3 ovarian): > 100 µM | TGI (MALME-3M melanoma): > 100 µM

COc1cc(Nc2cnc3cc(N)ccc3n2)cc(OC)c1OC
TGI (SNB-75 CNS): > 100 µM | TGI (OVCAR-8 ovarian): > 100 µM | TGI (KM20L2 colon): > 100 µM | TGI (NCI-H522 lung): > 100 µM | TGI (M14 melanoma): > 100 µM | TGI (HT29 colon): > 100 µM | TGI (A498 renal): > 100 µM | TGI (HOP-62 NSCLC): > 100 µM | TGI (TK-10 renal): > 100 µM | TGI (IGROV1 ovarian): > 100 µM | TGI (DMS 114 small cell lung): > 100 µM | TGI (K-562 leukemia): > 100 µM | TGI (SF-268 CNS): > 100 µM | TGI (CAKI-1 renal): > 100 µM | TGI (MOLT-4 leukemia): > 100 µM | TGI (SK-MEL-5 melanoma): > 100 µM | TGI (HCT-15 colon): > 100 µM | TGI (OVCAR-4 ovarian): > 100 µM | TGI (UO-31 renal): > 100 µM | TGI (SK-MEL-28 melanoma): > 100 µM | TGI (ACHN renal): > 100 µM | TGI (SF-539 CNS): > 100 µM | TGI (M19-MEL melanoma): > 100 µM | TGI (OVCAR-5 ovarian): > 100 µM | TGI (NCI-H460 lung): > 100 µM | TGI (HOP-92 NSCLC): > 100 µM | TGI (SF-295 CNS): > 100 µM | TGI (786-0 renal): > 100 µM | TGI (SR leukemia): > 100 µM | TGI (SK-MEL-2 melanoma): > 100 µM | TGI (NCI-H23 lung): > 100 µM | TGI (SN12C renal): > 100 µM | TGI (CCRF-CEM leukemia): > 100 µM | TGI (UACC-62 melanoma): > 100 µM | TGI (HCC-2998 colon): > 100 µM | TGI (DLD-1 colon): > 100 µM | TGI (SW-620 colon): > 100 µM | TGI (UACC-257 melanoma): > 100 µM | TGI (XF 498 CNS): > 100 µM | TGI (SK-OV-3 ovarian): > 100 µM | TGI (U251 CNS): > 100 µM | TGI (DMS 273 small cell lung): 28.1 µM | TGI (A549 NSCLC): > 100 µM | TGI (LXFL 529 NSCLC): > 100 µM | TGI (HL-60(TB) leukemia): > 100 µM | TGI (HCT-116 colon): > 100 µM | TGI (KM12 colon): > 100 µM | TGI (EKVX NSCLC): > 100 µM | TGI (HOP-18 NSCLC): > 100 µM | TGI (LOX IMVI melanoma): > 100 µM | TGI (OVCAR-3 ovarian): > 100 µM | TGI (COLO 205 colon): > 100 µM | TGI (SNB-19 CNS): > 100 µM | TGI (MALME-3M melanoma): > 100 µM
